Test: release of API into water from dried API-biopolymer pellets, measured by UV/VIS spectroscopy
Format: physicochemical
Settings: from the dry biopolymer matrix, versus acetyl salicylic acid
Protocol: Briefly biopolymer suspensions were produced with a known quantity of API added to the suspensions. The suspensions with API were then dried as pellets. These pellets were then added to a known volume of water and aliquots of the water were removed periodically to determine the rate of release of the API. The API concentration was measured using UV/VIS spectroscopy. The sample was dried for 10 hours in air and 3 hours in the oven at 50° C. The acetaminophen concentration in dried materials was 29.58% w/w. This figure represents release of acetaminophen into water from the dried acetaminophen doped chitin suspension, where the concentration of acetaminophen, in g/L, is plotted against time, in minutes.

release rate compared between drugs: slower release
Compound: CC(=O)Nc1ccc(O)cc1 [acetaminophen]

From US20250248940A1, “Biopolymer Formulations for Drug Delivery” (11584022 Canada Inc., priority 2022, published 2025)
